Results: patent US4041111A, “Phosphonate monoesters and method of preparation” (Purdue Research Foundation, priority 1975, dated 1977)

Tests used:
[1] = target: T1, Type I phosphodiesterase, Bovine Intestine (Bos taurus, UniProt P15396); assay: Activity of Type I phosphodiesterase, bovine intestine (Table VII); type: biochemical; conditions: 1 mM 4-nitrophenyl ester of the named compound
T1 construct: from tissue; host or cells: bovine intestine
T1 sequence (P15396 1-874): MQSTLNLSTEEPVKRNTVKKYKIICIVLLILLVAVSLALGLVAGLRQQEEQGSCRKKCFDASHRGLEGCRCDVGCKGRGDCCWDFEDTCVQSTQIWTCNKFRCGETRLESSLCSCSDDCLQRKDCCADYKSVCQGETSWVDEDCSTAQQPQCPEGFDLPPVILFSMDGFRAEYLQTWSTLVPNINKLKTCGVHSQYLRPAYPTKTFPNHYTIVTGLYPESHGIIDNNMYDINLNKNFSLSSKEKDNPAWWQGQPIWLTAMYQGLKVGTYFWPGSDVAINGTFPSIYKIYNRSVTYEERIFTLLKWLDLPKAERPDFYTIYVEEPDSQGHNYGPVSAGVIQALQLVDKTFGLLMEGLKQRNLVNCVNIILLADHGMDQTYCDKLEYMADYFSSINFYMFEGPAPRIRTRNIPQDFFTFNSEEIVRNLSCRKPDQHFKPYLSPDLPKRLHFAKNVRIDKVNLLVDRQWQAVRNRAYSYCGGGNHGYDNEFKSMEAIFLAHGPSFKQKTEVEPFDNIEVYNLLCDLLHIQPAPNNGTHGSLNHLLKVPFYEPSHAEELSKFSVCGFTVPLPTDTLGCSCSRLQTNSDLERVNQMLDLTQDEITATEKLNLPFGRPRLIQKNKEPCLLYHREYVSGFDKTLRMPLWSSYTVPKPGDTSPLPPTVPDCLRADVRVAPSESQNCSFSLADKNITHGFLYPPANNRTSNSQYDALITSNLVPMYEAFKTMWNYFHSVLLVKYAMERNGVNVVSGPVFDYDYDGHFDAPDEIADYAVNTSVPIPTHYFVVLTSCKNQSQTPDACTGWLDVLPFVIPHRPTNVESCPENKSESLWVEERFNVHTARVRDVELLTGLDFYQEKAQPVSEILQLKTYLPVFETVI
Protocol: (§1) Enzymic hydrolysis of 4-nitrophenyl esters is quantitated spectrophotometrically by the appearance of the 4-nitrophenolate ion at 400 nm (ε=18,320 M^-^1 cm^-1, pK 7.15) (see Kezdy, F. J. and Bender, M. L., 1962, Biochemistry, Volume 1, page 1097), either continuously above pH 7.0 or discontinuously by raising the assay mixture to pH 9 and inactivating the enzyme by the addition of two volumes of 1 M NaHCO3, 10 mM Na3 PO4, 10 mM Na2 EDTA. Standard assay conditions are 1 mM 4-nitrophenyl phenylphosphonate, 0.1 M Tris, pH 8.0, 30° C.
(§2) Table VII is a comparison of Type I and Type II Phosphodiesterase as follows:
(§3) Substrates were 1 mM solutions of the 4-nitrophenyl esters of the above

[2] = system: Type I phosphodiesterase, Snake Venon; assay: Activity of Type I phosphodiesterase, snake venom (Table VII); type: biochemical; conditions: 1 mM 4-nitrophenyl ester of the named compound
Protocol: as §1, §2, §3

[3] = system: Type II phosphodiesterase, Bovine spleen; assay: Activity of Type II phosphodiesterase, bovine spleen (Table VII); type: biochemical; conditions: 1 mM 4-nitrophenyl ester of the named compound
Protocol: as §1, §2, §3

[4] = Stability and water solubility of phosphonate monoesters
[5] = target: T2, purified bovine intestinal phosphodiesterase (Bos taurus, UniProt P15396); assay: Kinetic parameters of hydrolysis by purified phosphonate monoesterase/phosphodiesterase of calf intestinal mucosa (Table VI); type: biochemical, bovine (calf); conditions: 0.1 M Tris pH 8.0, 30° C., 4-nitrophenol measured continuously at 400 nm
T2 sequence (P15396 1-874): T1 sequence (P15396 1-874)
Protocol: as §1
^a Production of 4-nitrophenol was measured continuously at 400 nm in […]

Compound | Activity [1] | Activity [2] [nmoles min^-^1 mg^-^1] | Activity [3] [nmoles min^-^1 mg^-^1] | stability of solutions of the ammonium salt ([4]; concentrations to 0.1 M, 0°-4° C.) | stability as the dry ammonium salt ([4]; dry ammonium salt) | stability in solution compared with 4-nitrophenyl phosphate ([4]; in solution) | Vmax [5] [μmoles min^-^1 mg^-^1]
Cc1cn([C@H]2C[C@H](O)[C@@H](COP(=O)(O)Oc3ccc([N+](=O)[O-])cc3)O2)c(=O)[nH]c1=O [4-nitrophenyl 5'-TMP] | 65,700 nmoles min^-^1 mg^-^1 | 4570 | 6.9 | – | – | – | –
O=[N+]([O-])c1ccc(OP(=O)(O)c2ccccc2)cc1 [4-nitrophenyl phenylphosphonate] | – | – | – | stable in concentrations to 0.1 M for several weeks at 0°-4 °C | stable indefinitely as the dry ammonium salt | much more stable in solution than is 4-nitrophenyl phosphate | –
Cc1cn([C@H]2C[C@H](OP(=O)(O)Oc3ccc([N+](=O)[O-])cc3)[C@@H](CO)O2)c(=O)[nH]c1=O [4-nitrophenyl 3'-TMP] | 569 nmoles min^-^1 mg^-^1 | 1.9 | 168 | – | – | – | 1
